The values that follow are results of earlier work, collected in patent US8101199B2, “Des-methyl-tocopherol therapy for restenosis prevention” (Celonova Biosciences, Inc., priority 2003, dated 2012).

The conditions of data set [1]: relative to d-Alpha-Toc = 100.
Another data set relates to femoral arteries. To be noted: rabbit; three weeks after angioplasty; oral treatment beginning 19 d before angioplasty.
Data set [2] relates to rabbit vascular smooth muscle cells.
The subject of another data set is native coronary vessels. To be noted: addition of 200 mg for all subjects during the study.
The test system of data set [3] is previously dilated artery segment. To be noted: 1200 IU/day orally for 4 months after PTCA.
A further data set relates to coronary restenosis. The conditions noted are these: clinical trials.

For `Cc1cc(O)c(C)c2c1O[C@](C)(CCC[C@H](C)CCC[C@H](C)CCCC(C)C)CC2` [d-Beta-Tocopherol], the “Antioxidant Activity (d-Alpha-Toc = 100)” value in data set [1] was 130.

Turning to `Cc1c(C)c2c(c(C)c1O)CC[C@@](C)(CCC[C@H](C)CCC[C@H](C)CCCC(C)C)O2` [alpha-tocopherol, Alpha-Tocopherol], in the data set on femoral arteries, the “angiographically determined minimum luminal diameter” value is 1.38+/−0.29 mm and the “cross-sectional area of the intima-media” value is reported as 0.62+/−0.25 mm2. For the same molecule, in data set [2], the “DNA synthesis stimulated by oxidized low density lipoprotein” value is “inhibited DNA synthesis”. For the same molecule, in the data set with native coronary vessels, the “effect on restenosis rates” value is given as “no effect on restenosis rates”. On to `Cc1c(O)cc2c(c1C)O[C@](C)(CCC[C@H](C)CCC[C@H](C)CCCC(C)C)CC2` [gamma-tocopherol, Gamma-Tocopherol], for which, in the data set on cyclooxygenase, the cyclooxygenase activity inhibition result is given as “inhibit cyclooxygenase activity”.

As for `Cc1c(C)c2c(c(C)c1O)CC[C@@](C)(CCC[C@H](C)CCC[C@H](C)CCCC(C)C)O2` [d-Alpha-Tocopherol], the “Antioxidant Activity (d-Alpha-Toc = 100)” value in data set [1] is on record as 100. For the molecule `CC(=O)Oc1c(C)c(C)c2c(c1C)CC[C@@](C)(CCC[C@H](C)CCC[C@H](C)CCCC(C)C)O2` [d-Alpha-Tocopherol acet.], the “Antioxidant Activity (d-Alpha-Toc = 100)” value in data set [1] is 0. With `Cc1c(O)cc2c(c1C)O[C@](C)(CCC[C@H](C)CCC[C@H](C)CCCC(C)C)CC2` [d-Gamma-Tocopherol], the “Antioxidant Activity (d-Alpha-Toc = 100)” value in data set [1] was 200.

For `Cc1cc(O)cc2c1O[C@](C)(CCC[C@H](C)CCC[C@H](C)CCCC(C)C)CC2` [d-Delta-Tocopherol], the “Antioxidant Activity (d-Alpha-Toc = 100)” value in data set [1] is given as 300–500. `Cc1c(O)cc2c(c1C)OC(C)(CCC(=O)O)CC2` (stereo not drawn) [gamma-CEHC, 2,7,8-trimethyl-2-(beta-carboxyethyl)-6-hydroxychroman]: the cyclooxygenase activity inhibition entry with cyclooxygenase was “inhibit cyclooxygenase activity”. On to `CC(=O)Oc1c(C)c(C)c2c(c1C)CCC(C)(CCCC(C)CCCC(C)CCCC(C)C)O2` (racemic) [dl-ALpha-Tocopherol acet.], for which the “Antioxidant Activity (d-Alpha-Toc = 100)” value in data set [1] is on record as 0. In the case of `Cc1c(C)c2c(c(C)c1O)CCC(C)(CCCC(C)CCCC(C)CCCC(C)C)O2` (racemic) [dl-Alpha-Tocopherol], in data set [3], the “overall incidence of restenosis defined by an abnormal angiogram or thallium test or exercise stress test” value is reported as 34.6% and the “restenosis (angiographically documented)” value is 35.5%. In addition, in data set [1], the “Antioxidant Activity (d-Alpha-Toc = 100)” value is on record as 100. Regarding `CC(C)(Sc1cc(C(C)(C)C)c(O)c(C(C)(C)C)c1)Sc1cc(C(C)(C)C)c(O)c(C(C)(C)C)c1` [Probucol], the “prevention of coronary restenosis after balloon angioplasty” value in the data set on coronary restenosis is reported as “shown to prevent coronary restenosis”.
